Reference: patent US20220206003A1, “BIOMARKERS FOR PREDICTING RESISTANCE TO CANCER DRUGS” (INSTITUT CURIE, priority 2019, published 2022)
Read-outs that look alike come from different tables or passages of the source.

Columns and labels:
[1] = system: HBCx-22 / HBCx-22-TamR luminal ER+ breast PDX; settings: cited from earlier work
[2] = system: HBCx-95 xenografts (triple negative breast cancer PDX); experiment: Capecitabine treatment of HBCx-95 patient-derived xenografts (relative tumor volume, response); format: in vivo, Swiss nude mice; settings: HBCx-95 xenograft, mouse #40, oral 540 mg/kg/day, second round after recurrence
From the text: Female Swiss nude mice were purchased from Charles River Laboratories and maintained under specific pathogen-free conditions. Their care and housing were in accordance with institutional guidelines and the rules of the French Ethics Committee (project authorization no. 02163.02). A PDX model of luminal breast cancer (HBCx-22) was previously established at Institut Curie from untreated early-stage luminal breast cancer with informed consent from the patient. Acquisition of a resistant phenotype for a derivative of HBCx-22, HBCx-22-TamR, was previously established and maintained. A PDX from a residual triple negative breast cancer post neo-adjuvant chemotherapy (HBCx-95) was previously established at Institut Curie with informed consent from the patient. HBCx-95 xenografts (n=6) were treated with Capecitabine (Xeloda, Roche Laboratories) orally at a dose of 540 mg/kg/day, 5 days a week for 6 weeks. Relative tumor volumes (RTV, mm3) were calculated. Mice with recurrent tumors were treated for a second round of Capecitabine when PDX reached a volume of over 200 mm^3 (mice #35, #40 & #33).

## CC/C(=C(\c1ccccc1)c1ccc(OCCN(C)C)cc1)c1ccccc1 [Tamoxifen]
[1]; HBCx-22-TamR tumor derivative, previously characterized
  response of PDX to Tamoxifen: acquired resistance
[1]; HBCx-22 luminal ER+ breast PDX
  response of PDX to Tamoxifen: responsive

## CCCCCOC(=O)Nc1nc(=O)n([C@@H]2O[C@H](C)[C@@H](O)[C@H]2O)cc1F [Capecitabine]
[2]
  response of recurrent PDX tumor to a second round of Capecitabine: did not respond
